Measurements as given in patent publication US7547513B2, “Mutants of deoxycytidine kinase having extended enzymatic activity” (priority 2001, dated 2009).
Values after ≈ are worked out from the molar mass of the structure shown. Values joined by “and” are separate entries in the source; they are usually repeats but may differ in a detail not shown here. Identical values can stand only once.

Legend:
[1] = system: Escherichia coli β7343 Δdeo tdk cdd::Tn10 (dckH D133E R104Q, amkG wt); experiment: microbe, parasite or virus in culture; assay type: cell-based; details: for minimum inhibitory concentration (MIC): strain β7343, dckH D133E R104Q, amkG wt
Procedure: (§1) The culture was then diluted 100 times in the same medium supplemented with IPTG and distributed on 96-well microplates in a final volume of 100 μl in a series of dilutions from to 2 to 2 nucleotide analogues. Each analogue was tested twice. After incubation for 18 hours at 37° C. with stirring, the MIC was determined as corresponding to the lowest analogue concentration for which no turbidity was detectable.
(§2) We jointly expressed, within the genetic context Δdeo tdk cdd each of the four alleles of dckH with each of the two wt and T39A alleles of amkG, and tested the toxicity of the different nucleoside analogues already tested previously (Table 4 below).
(§3) The minimum inhibitory concentrations, expressed in microM, were determined as indicated in the section Materials and Methods.

[2] = system: Escherichia coli β7348 Δdeo tdk cdd::Tn10 (dckH D133E R104Q, amkG T39A); experiment: microbe, parasite or virus in culture; assay type: cell-based; details: for minimum inhibitory concentration (MIC): strain β7348, dckH D133E R104Q, amkG T39A
Procedure: as §1, §2, §3

[3] = system: Escherichia coli β7347 Δdeo tdk cdd::Tn10 (dckH R104Q, amkG T39A); experiment: microbe, parasite or virus in culture; assay type: cell-based; details: for minimum inhibitory concentration (MIC): strain β7347, dckH R104Q, amkG T39A
Procedure: as §1, §2, §3

[4] = system: Escherichia coli β7340 Δdeo tdk cdd::Tn10 (dckH wt, amkG wt); experiment: microbe, parasite or virus in culture; assay type: cell-based; details: for minimum inhibitory concentration (MIC): strain β7340, dckH wt, amkG wt
Procedure: as §1, §2, §3

[5] = system: Escherichia coli β7339 Δdeo tdk cdd::Tn10 (dckH none, amkG wt); experiment: microbe, parasite or virus in culture; assay type: cell-based; details: for minimum inhibitory concentration (MIC): strain β7339, dckH none, amkG wt
Procedure: as §1, §2, §3

[6] = system: Escherichia coli β7346 Δdeo tdk cdd::Tn10 (dckH D133E, amkG T39A); experiment: microbe, parasite or virus in culture; assay type: cell-based; details: for minimum inhibitory concentration (MIC): strain β7346, dckH D133E, amkG T39A
Procedure: as §1, §2, §3

[7] = system: Escherichia coli β7345 Δdeo tdk cdd::Tn10 (dckH wt, amkG T39A); experiment: microbe, parasite or virus in culture; assay type: cell-based; details: for minimum inhibitory concentration (MIC): strain β7345, dckH wt, amkG T39A
Procedure: as §1, §2, §3

[8] = system: Escherichia coli β7342 Δdeo tdk cdd::Tn10 (dckH R104Q, amkG wt); experiment: microbe, parasite or virus in culture; assay type: cell-based; details: for minimum inhibitory concentration (MIC): strain β7342, dckH R104Q, amkG wt
Procedure: as §1, §2, §3

[9] = system: Escherichia coli β7341 Δdeo tdk cdd::Tn10 (dckH D133E, amkG wt); experiment: microbe, parasite or virus in culture; assay type: cell-based; details: for minimum inhibitory concentration (MIC): strain β7341, dckH D133E, amkG wt
Procedure: as §1, §2, §3

[10] = system: Escherichia coli β7344 Δdeo tdk cdd::Tn10 (dckH none, amkG T39A); experiment: microbe, parasite or virus in culture; assay type: cell-based; details: for minimum inhibitory concentration (MIC): strain β7344, dckH none, amkG T39A
Procedure: as §1, §2, §3

[11] = system: Escherichia coli β7334 Δdeo tdk cdd::Tn10 pSUTrc (dck allele: none); assay type: cell-based; details: strain β7334, dck allele none; 18 h 37° C., MS medium + IPTG
Procedure: as §1
(§4) The toxicity of nucleoside analogues, deviating either by the sugar or by the base, was evaluated in strains of genotype Δdeo tdk cdd expressing on a plasmid the different dckH alleles, wild-type allele, D133E, R104Q and double mutant.
as §3

[12] = system: Escherichia coli β7338 Δdeo tdk cdd::Tn10 pSUDCK4 (dck:D133E-R104Q); assay type: cell-based; details: strain β7338, dck allele D133E R104Q; 18 h 37° C., MS medium + IPTG
Procedure: as §1, §4, §3

[13] = system: Escherichia coli β7336 Δdeo tdk cdd::Tn10 pSUDCK2 (dck:D133E); assay type: cell-based; details: strain β7336, dck allele D133E; 18 h 37° C., MS medium + IPTG
Procedure: The culture was then diluted 100 times in the same medium supplemented with IPTG and distributed on 96-well microplates in a final volume of 100 μl in a series of dilutions from to 2 to 2 nucleotide analogues. Each analogue was tested twice.
as §4, §3

[14] = system: bacteria of genotype Δdeo tdk p::dckH+ (β7134 cells); experiment: Selection of the DCK mutants in vivo (mutagenesis of dck gene by promutagenic nucleosides); assay type: cell-based, Escherichia coli
Procedure: Selection of the DCK mutants in vivo: a 12-hour culture of the β7134 cells in MS medium supplemented with 50 mg/l of carbenicillin was diluted 100 times in the same medium and cultured with aeration until turbidity of 0.100 (600 nm) was reached. The culture was then diluted 25 times in the same medium with or without IPTG and supplemented with variable concentrations (5 to 30 μM) of the promutagenic nucleoside analogues disoG and disoA then cultured with aeration for 18 hours. The cells were rinsed then plated on MH dishes supplemented with trimethoprim, thymidine and IPTG. Colonies appeared after incubation for 36 hours at 37° C. No colony was obtained in the absence of nucleoside analogue.
We took advantage of the conditional mutating property of DCK in the presence of promutagenic nucleoside analogues in order to subject its own dck gene to an episode of mutagenesis in vivo. Thus, bacteria of genotype Δdeo tdk p::dckH+ were exposed either to 2′-deoxy-iso-adenosine (disoA) or to 2′ deoxy-iso-guanosine (disoG), then incubated on solid rich medium in the presence of trimethoprim and thymidine. Colonies appeared following the administration of the two compounds at a frequency of the order of 10^−8. No colony survived in the absence of promutagenic nucleoside.
These alleles are designated dckH*. A plasmid combining the two mutations in the same allele, dckH**, was constructed and introduced into the strain β7117 of genotype Δdeo tdk. This allowed the complementation of the tdk mutation, thus also expressing a thymidine kinase activity. The different alleles selected are itemized in Table 2 below.

[15] = Escherichia coli, read-out: minimum inhibitory concentration (MIC)

| SMILES | minimum inhibitory concentration (MIC) [1] | minimum inhibitory concentration (MIC) [2] | minimum inhibitory concentration (MIC) [3] | minimum inhibitory concentration (MIC) [4] | minimum inhibitory concentration (MIC) [5] | minimum inhibitory concentration (MIC) [6] | minimum inhibitory concentration (MIC) [7] | minimum inhibitory concentration (MIC) [8] | minimum inhibitory concentration (MIC) [9] | minimum inhibitory concentration (MIC) [10] | minimum inhibitory concentration (MIC) [11] | minimum inhibitory concentration (MIC) [12] | minimum inhibitory concentration (MIC) [13] | further results |
| --- | --- | --- | --- | --- | --- | --- | --- | --- | --- | --- | --- | --- | --- | --- |
| Nc1nc(=O)n([C@H]2C[C@H](O)[C@@H](CO)O2)cc1I [5-iodo-dC, 5-iodo-2′-deoxycytidine] | – | – | – | – | – | – | – | – | – | – | – | – | – | MIC [1, 15]: ≤ 1.25 µM; MIC [2, 15]: ≤ 1.25 µM; MIC [3, 15]: ≤ 1.25 µM; MIC [4, 15]: > 1280 µM; MIC [5, 15]: > 1280 µM; MIC [6, 15]: ≤ 1.25 µM; MIC [7, 15]: ≤ 1.25 µM; MIC [8, 15]: ≤ 1.25 µM; MIC [9, 15]: ≤ 1.25 µM; MIC [10, 15]: > 1280 µM |
| OC[C@H]1O[C@@H](n2c(O)nc3c(O)ncnc32)C[C@@H]1O [8ho′dI, 8-hydroxy-hypoxanthine deoxyribonucleoside] | > (no toxicity could be detected at the highest analogue concentration, 1280 microM) | > (no toxicity could be detected at the highest analogue concentration, 1280 microM) | > (no toxicity could be detected at the highest analogue concentration, 1280 microM) | > (no toxicity could be detected at the highest analogue concentration, 1280 microM) | > (no toxicity could be detected at the highest analogue concentration, 1280 microM) | 1280 µM (≈ 343 µg/mL) | > (no toxicity could be detected at the highest analogue concentration, 1280 microM) | > (no toxicity could be detected at the highest analogue concentration, 1280 microM) | 1280 µM (≈ 343 µg/mL) | > (no toxicity could be detected at the highest analogue concentration, 1280 microM) | > (no toxicity could be detected at the highest analogue concentration, 1.28 mM) | > (no toxicity could be detected at the highest analogue concentration, 1.28 mM) | 1280 µM | – |
| O=c1[nH]cnc2c1ncn2[C@H]1C[C@H](O)[C@@H](CO)O1 [dI, 2′-deoxyinoside] | 1280 µM (≈ 323 µg/mL) | 1280 µM (≈ 323 µg/mL) | > (no toxicity could be detected at the highest analogue concentration, 1280 microM) | > (no toxicity could be detected at the highest analogue concentration, 1280 microM) | > (no toxicity could be detected at the highest analogue concentration, 1280 microM) | ≦1.25 microM | > (no toxicity could be detected at the highest analogue concentration, 1280 microM) | > (no toxicity could be detected at the highest analogue concentration, 1280 microM) | ≦1.25 microM | > (no toxicity could be detected at the highest analogue concentration, 1280 microM) | > (no toxicity could be detected at the highest analogue concentration, 1.28 mM) | 320 µM | 1 µM and 1.25 µM | – |
| NC(=O)c1cn([C@H]2C[C@H](O)[C@@H](CO)O2)cn1 [dY, 1-(2′-deoxyribofuranosyl)imidazole-4-carboxamide] | > (no toxicity could be detected at the highest analogue concentration, 1280 microM) | > (no toxicity could be detected at the highest analogue concentration, 1280 microM) | > (no toxicity could be detected at the highest analogue concentration, 1280 microM) | > (no toxicity could be detected at the highest analogue concentration, 1280 microM) | > (no toxicity could be detected at the highest analogue concentration, 1280 microM) | 1280 µM (≈ 291 µg/mL) | > (no toxicity could be detected at the highest analogue concentration, 1280 microM) | > (no toxicity could be detected at the highest analogue concentration, 1280 microM) | > (no toxicity could be detected at the highest analogue concentration, 1280 microM) | > (no toxicity could be detected at the highest analogue concentration, 1280 microM) | > (no toxicity could be detected at the highest analogue concentration, 1.28 mM) | > (no toxicity could be detected at the highest analogue concentration, 1.28 mM) | – | – |
| Nc1nc(O)nc2c1ncn2[C@H]1C[C@H](O)[C@@H](CO)O1 [disoG, 2-hydroxy-6-amino-9-(2′-deoxy-β-D-ribofuranosyl)purine] | > (no toxicity could be detected at the highest analogue concentration, 1280 microM) | > (no toxicity could be detected at the highest analogue concentration, 1280 microM) | > (no toxicity could be detected at the highest analogue concentration, 1280 microM) | > (no toxicity could be detected at the highest analogue concentration, 1280 microM) | > (no toxicity could be detected at the highest analogue concentration, 1280 microM) | > (no toxicity could be detected at the highest analogue concentration, 1280 microM) | > (no toxicity could be detected at the highest analogue concentration, 1280 microM) | > (no toxicity could be detected at the highest analogue concentration, 1280 microM) | > (no toxicity could be detected at the highest analogue concentration, 1280 microM) | > (no toxicity could be detected at the highest analogue concentration, 1280 microM) | > (no toxicity could be detected at the highest analogue concentration, 1.28 mM) | > (no toxicity could be detected at the highest analogue concentration, 1.28 mM) | – | frequency of colonies on solid rich medium with trimethoprim and thymidine after exposure ([14]; no colony in the absence of promutagenic nucleoside): ~10^−8; Frequency of mutation detected C → A, codon 133 GAC, Asp → Glu ([14]; sequenced mutant plasmids obtained independently): 4/4 |
